Laboratory results: US10206394B2, “Herbicidal compounds” (Syngenta Participations AG, priority 2014, dated 2019)
Like-named read-outs stand apart in the source and are kept apart here.

What was measured:
Test in all cases: Glasshouse assay for herbicidal activity (pre- and post-emergence), percentage phytotoxicity
Type in all cases: in vivo
[1] = tested on: Lolium perenne (LOLPE); details: Lolium perenne
Method in brief: (§1)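 Pot-grown, standard soil. PRE: spray 1 d post-sowing; POST: ~12 d. Glasshouse 24/18 °C (warm spp.) / 20/16 °C (cool spp.), 16 h light, 65% RH, watered 2×/day. Visual % damage, 20 DAA PRE, 15 DAA POST.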

[2] = tested on: Alopecurus myosuroides (ALOMY); details: Alopecurus myosuroides
Method in brief: as §1

[3] = tested on: Avena fatua (AVEFA); details: Avena fatua
Method in brief: as §1

[4] = tested on: Echinochloa crus-galli (ECHCG); details: Echinochloa crus-galli
Method in brief: as §1

[5] = post-emergence, 360 h, 250 g/ha, post-emergence, 15 DAA, visual assessment (100%=total damage, 0%=no damage), read-out: Post-emergence herbicidal activity (percentage phytotoxicity) LOLPE POST
[6] = pre-emergence, 480 h, 250 g/ha, pre-emergence, 20 DAA, visual assessment (100%=total damage, 0%=no damage), read-out: Pre-emergence herbicidal activity (percentage phytotoxicity) LOLPE PRE
[7] = post-emergence, 360 h, 250 g/ha, post-emergence, 15 DAA, visual assessment (100%=total damage, 0%=no damage), read-out: Post-emergence herbicidal activity (percentage phytotoxicity) ALOMY POST
[8] = pre-emergence, 480 h, 250 g/ha, pre-emergence, 20 DAA, visual assessment (100%=total damage, 0%=no damage), read-out: Pre-emergence herbicidal activity (percentage phytotoxicity) ALOMY PRE
[9] = post-emergence, 360 h, 250 g/ha, post-emergence, 15 DAA, visual assessment (100%=total damage, 0%=no damage), read-out: Post-emergence herbicidal activity (percentage phytotoxicity) AVEFA POST
[10] = pre-emergence, 480 h, 250 g/ha, pre-emergence, 20 DAA, visual assessment (100%=total damage, 0%=no damage), read-out: Pre-emergence herbicidal activity (percentage phytotoxicity) AVEFA PRE
[11] = post-emergence, 360 h, 250 g/ha, post-emergence, 15 DAA, visual assessment (100%=total damage, 0%=no damage), read-out: Post-emergence herbicidal activity (percentage phytotoxicity) ECHCG POST
[12] = pre-emergence, 480 h, 250 g/ha, pre-emergence, 20 DAA, visual assessment (100%=total damage, 0%=no damage), read-out: Pre-emergence herbicidal activity (percentage phytotoxicity) ECHCG PRE
[13] = post-emergence, 360 h, POST-emergence, rate 250 g/ha, visual score 15 DAA (100%=total damage, 0%=no damage), read-out: Post-emergence herbicidal activity (percentage phytotoxicity) LOLPE POST
[14] = pre-emergence, 480 h, PRE-emergence, rate 250 g/ha, visual score 20 DAA (100%=total damage, 0%=no damage), read-out: Pre-emergence herbicidal activity (percentage phytotoxicity) LOLPE PRE
[15] = post-emergence, 360 h, POST-emergence, rate 250 g/ha, visual score 15 DAA (100%=total damage, 0%=no damage), read-out: Post-emergence herbicidal activity (percentage phytotoxicity) ALOMY POST
[16] = pre-emergence, 480 h, PRE-emergence, rate 250 g/ha, visual score 20 DAA (100%=total damage, 0%=no damage), read-out: Pre-emergence herbicidal activity (percentage phytotoxicity) ALOMY PRE
[17] = post-emergence, 360 h, POST-emergence, rate 250 g/ha, visual score 15 DAA (100%=total damage, 0%=no damage), read-out: Post-emergence herbicidal activity (percentage phytotoxicity) AVEFA POST
[18] = pre-emergence, 480 h, PRE-emergence, rate 250 g/ha, visual score 20 DAA (100%=total damage, 0%=no damage), read-out: Pre-emergence herbicidal activity (percentage phytotoxicity) AVEFA PRE
[19] = post-emergence, 360 h, POST-emergence, rate 250 g/ha, visual score 15 DAA (100%=total damage, 0%=no damage), read-out: Post-emergence herbicidal activity (percentage phytotoxicity) ECHCG POST
[20] = pre-emergence, 480 h, PRE-emergence, rate 250 g/ha, visual score 20 DAA (100%=total damage, 0%=no damage), read-out: Pre-emergence herbicidal activity (percentage phytotoxicity) ECHCG PRE

Compound	pest or weed control at 250 g/ha [1, 5] [%]	pest or weed control at 250 g/ha [1, 6] [%]	pest or weed control at 250 g/ha [2, 7] [%]	pest or weed control at 250 g/ha [2, 8] [%]	pest or weed control at 250 g/ha [3, 9] [%]	pest or weed control at 250 g/ha [3, 10] [%]	pest or weed control at 250 g/ha [4, 11] [%]	pest or weed control at 250 g/ha [4, 12] [%]	further results
Cc1cc(-c2ncc(Cl)cc2F)cc(C)c1C1C(=O)CC(CC(=O)NCc2cccc(F)c2)C1=O (stereo not shown) [Compound B129]	100	90	100	90	100	50	100	70	–
C#CCNC(=O)CC1CC(=O)C(c2c(C)cc(C#CC)cc2CC)C1=O (stereo not shown) [Compound A68]	–	–	–	–	–	–	–	–	pest or weed control at 250 g/ha ([1]; post-emergence, 360 h, Rate 250 g/ha, post-emergence, assessed visually 15 DAA, 100%=total damage, 0%=no damage, read-out: Post-emergence herbicidal activity (percentage phytotoxicity) LOLPE POST): 100%; pest or weed control at 250 g/ha ([1]; pre-emergence, 480 h, Rate 250 g/ha, pre-emergence, assessed visually 20 DAA, 100%=total damage, 0%=no damage, read-out: Pre-emergence herbicidal activity (percentage phytotoxicity) LOLPE PRE): 100%; pest or weed control at 250 g/ha ([2]; post-emergence, 360 h, Rate 250 g/ha, post-emergence, assessed visually 15 DAA, 100%=total damage, 0%=no damage, read-out: Post-emergence herbicidal activity (percentage phytotoxicity) ALOMY POST): 90%; pest or weed control at 250 g/ha ([2]; pre-emergence, 480 h, Rate 250 g/ha, pre-emergence, assessed visually 20 DAA, 100%=total damage, 0%=no damage, read-out: Pre-emergence herbicidal activity (percentage phytotoxicity) ALOMY PRE): 70%; pest or weed control at 250 g/ha ([3]; post-emergence, 360 h, Rate 250 g/ha, post-emergence, assessed visually 15 DAA, 100%=total damage, 0%=no damage, read-out: Post-emergence herbicidal activity (percentage phytotoxicity) AVEFA POST): 100%; pest or weed control at 250 g/ha ([3]; pre-emergence, 480 h, Rate 250 g/ha, pre-emergence, assessed visually 20 DAA, 100%=total damage, 0%=no damage, read-out: Pre-emergence herbicidal activity (percentage phytotoxicity) AVEFA PRE): 100%; pest or weed control at 250 g/ha ([4]; post-emergence, 360 h, Rate 250 g/ha, post-emergence, assessed visually 15 DAA, 100%=total damage, 0%=no damage, read-out: Post-emergence herbicidal activity (percentage phytotoxicity) ECHCG POST): 100%; pest or weed control at 250 g/ha ([4]; pre-emergence, 480 h, Rate 250 g/ha, pre-emergence, assessed visually 20 DAA, 100%=total damage, 0%=no damage, read-out: Pre-emergence herbicidal activity (percentage phytotoxicity) ECHCG PRE): 100%
C#CCN(C)C(=O)CC1CC(=O)C(c2c(C)cc(C)cc2CC)C1=O (stereo not shown) [Compound B260]	–	–	–	–	–	–	–	–	pest or weed control at 250 g/ha [1, 13]: 100%; pest or weed control at 250 g/ha [1, 14]: 100%; pest or weed control at 250 g/ha [2, 15]: 100%; pest or weed control at 250 g/ha [2, 16]: 90%; pest or weed control at 250 g/ha [3, 17]: 100%; pest or weed control at 250 g/ha [3, 18]: 80%; pest or weed control at 250 g/ha [4, 19]: 100%; pest or weed control at 250 g/ha [4, 20]: 100%
Cc1cc(-c2ncc(F)cc2F)cc(C)c1C1C(=O)CC(CC(=O)NCc2cc(F)cc(F)c2)C1=O (stereo not shown) [Compound B71]	100	90	100	90	100	90	100	100	–
Cc1cc(-c2nc(C#N)cs2)cc(C)c1C1C(=O)CC(CC(=O)NC(C)(C)C)C1=O (stereo not shown) [Compound B30]	30	70	70	60	90	70	80	70	–
C=CC1(NC(=O)CC2CC(=O)C(c3c(C)cc(C)cc3C)C2=O)CC1 (stereo not shown) [Compound B62]	90	90	70	80	70	40	70	90	–
Cc1cc(-c2ncc(F)cc2F)cc(C)c1C1C(=O)CC(CC(=O)NCc2cccc(Br)c2)C1=O (stereo not shown) [Compound B90]	100	100	100	90	100	70	100	100	–
Cc1cc(C)c(C2C(=O)CC(CC(=O)NC3CC(F)(F)C3)C2=O)c(C)c1 (stereo not shown) [Compound A185]	–	–	–	–	–	–	–	–	pest or weed control at 250 g/ha ([1]; post-emergence, 360 h, post-emergence, 250 g/ha, 15 DAA, visual score (100%=total damage; 0%=no damage), read-out: LOLPE POST herbicidal activity (percentage phytotoxicity)): 70%; pest or weed control at 250 g/ha ([1]; pre-emergence, 480 h, pre-emergence, 250 g/ha, 20 DAA, visual score (100%=total damage; 0%=no damage), read-out: LOLPE PRE herbicidal activity (percentage phytotoxicity)): 70%; pest or weed control at 250 g/ha ([2]; post-emergence, 360 h, post-emergence, 250 g/ha, 15 DAA, visual score (100%=total damage; 0%=no damage), read-out: ALOMY POST herbicidal activity (percentage phytotoxicity)): 80%; pest or weed control at 250 g/ha ([2]; pre-emergence, 480 h, pre-emergence, 250 g/ha, 20 DAA, visual score (100%=total damage; 0%=no damage), read-out: ALOMY PRE herbicidal activity (percentage phytotoxicity)): 80%; pest or weed control at 250 g/ha ([3]; post-emergence, 360 h, post-emergence, 250 g/ha, 15 DAA, visual score (100%=total damage; 0%=no damage), read-out: AVEFA POST herbicidal activity (percentage phytotoxicity)): 80%; pest or weed control at 250 g/ha ([3]; pre-emergence, 480 h, pre-emergence, 250 g/ha, 20 DAA, visual score (100%=total damage; 0%=no damage), read-out: AVEFA PRE herbicidal activity (percentage phytotoxicity)): 60%; pest or weed control at 250 g/ha ([4]; post-emergence, 360 h, post-emergence, 250 g/ha, 15 DAA, visual score (100%=total damage; 0%=no damage), read-out: ECHCG POST herbicidal activity (percentage phytotoxicity)): 70%; pest or weed control at 250 g/ha ([4]; pre-emergence, 480 h, pre-emergence, 250 g/ha, 20 DAA, visual score (100%=total damage; 0%=no damage), read-out: ECHCG PRE herbicidal activity (percentage phytotoxicity)): 70%
C#CCN(C)C(=O)CC1CC(=O)C(c2c(C)cc(/C=C/C)cc2C)C1=O (stereo not shown) [Compound B250]	–	–	–	–	–	–	–	–	pest or weed control at 250 g/ha [1, 13]: 100%; pest or weed control at 250 g/ha [1, 14]: 80%; pest or weed control at 250 g/ha [2, 15]: 100%; pest or weed control at 250 g/ha [2, 16]: 50%; pest or weed control at 250 g/ha [3, 17]: 90%; pest or weed control at 250 g/ha [3, 18]: 50%; pest or weed control at 250 g/ha [4, 19]: 100%; pest or weed control at 250 g/ha [4, 20]: 90%
Cc1cc(-c2ncc(Cl)cc2F)cc(C)c1C1C(=O)CC(CC(=O)NCC2CC2)C1=O (stereo not shown) [Compound B123]	100	100	100	100	100	90	100	100	–
C=CCNC(=O)CC1CC(=O)C(c2c(C)cc(/C=C/C)cc2C)C1=O (stereo not shown) [Compound B246]	–	–	–	–	–	–	–	–	pest or weed control at 250 g/ha [1, 13]: 100%; pest or weed control at 250 g/ha [1, 14]: 90%; pest or weed control at 250 g/ha [2, 15]: 100%; pest or weed control at 250 g/ha [2, 16]: 60%; pest or weed control at 250 g/ha [3, 17]: 100%; pest or weed control at 250 g/ha [3, 18]: 50%; pest or weed control at 250 g/ha [4, 19]: 100%; pest or weed control at 250 g/ha [4, 20]: 70%
